Where two headings read alike, the source gives them in different places. Bounds are passed on as bounds.

These results are taken from patent US20230022157A1 (Achillion Pharmaceuticals, Inc., priority 2018, published 2023).

The experiment has as its target T1, Human Factor D (Homo sapiens, UniProt P00746).
T1 construct: purified from human serum; purchased Complement Technology, Inc; host or cells: human serum (natural protein, not recombinant)
Put plainly: Human Factor D Assay. Type of experiment: biochemical. Conditions: Human Factor D 80 nM, substrate Z-L-Lys-SBzl, read-out: IC50 (Stars). How it is done:
Human Factor D (purified from human serum, Complement Technology, Inc.) at 80 nM final concentration is incubated with test compound at various concentrations for 5 min at room temperature in 50 mM Tris, 1M NaCl, pH 7.5. A synthetic substrate Z-L-Lys-SBzl and DTNB (Ellman's reagent) are added to final concentrations of 100 μM each. […] IC50 values are calculated by nonlinear regression of complement Factor D reaction rates as a function of test compound concentration.

T1 sequence (P00746 26-253): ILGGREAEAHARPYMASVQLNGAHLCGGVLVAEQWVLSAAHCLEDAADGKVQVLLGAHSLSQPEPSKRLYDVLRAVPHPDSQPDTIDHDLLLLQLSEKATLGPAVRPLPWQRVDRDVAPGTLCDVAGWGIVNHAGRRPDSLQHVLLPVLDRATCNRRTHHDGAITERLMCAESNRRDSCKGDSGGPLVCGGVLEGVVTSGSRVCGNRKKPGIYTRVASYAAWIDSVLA

In the case of `CC(=O)c1nn(CC(=O)N2[C@H](C(=O)N[C@H](C)C(F)(F)F)C[C@@]3(C)C[C@@H]23)c2c(C)cc(-c3cnc(C)nc3)cc12` [Compound 152, (1R,3S,5R)-2-{2-[3-acetyl-7-methyl-5-(2-methylpyrimidin-5-yl)indazol-1-yl]acetyl}-5-methyl-N-[(2R)-1,1,1-trifluoropropan-2-yl]-2-azabicyclo[3.1.0]hexane-3-carboxamide], the IC50 (Table 2) is under 1 µM.

For `CC(=O)c1nn(CC(=O)N2[C@H](C(=O)Nc3nc(Br)ccc3C)C[C@@]3(C)C[C@@H]23)c2ccc(-c3cncc(S(N)(=O)=O)c3)cc12` [Compound 71, (1R,3S,5R)-2-(2-(3-Acetyl-5-(5-sulfamoylpyridin-3-yl)-1H-indazol-1-yl)acetyl)-N-(6-bromo-3-methylpyridin-2-yl)-5-methyl-2-azabicyclo[3.1.0]hexane-3-carboxamide], the IC50 (Table 2) was under 1 µM.

Regarding `CC(=O)c1nn(CC(=O)N2[C@H](C(=O)NCCn3cccn3)C[C@@]3(C)C[C@@H]23)c2c(C)cc(-c3cnc(C)nc3)cc12` [Compound 102, (1R,3S,5R)-2-{2-[3-acetyl-7-methyl-5-(2-methylpyrimidin-5-yl)indazol-1-yl]acetyl}-5-methyl-N-[2-(pyrazol-1-yl)ethyl]-2-azabicyclo[3.1.0]hexane-3-carboxamide], the IC50 (Table 2) is under 1 µM. For the compound `CC(=O)c1nn(CC(=O)N2[C@H](C(=O)Nc3nc(Br)ccc3C)C[C@@]3(C)C[C@@H]23)c2c3c(c(-c4cnc(C)nc4)cc12)CCCO3` [Compound 20], the IC50 (assay of Example 3) is under 1 µM. Regarding `CC(=O)c1cn(CC(=O)N2[C@H](C(=O)Nc3nc(C(F)(F)F)ccc3C)C[C@@]3(C)C[C@@H]23)c2c(C)cc(-c3cnc4cc(CF)nn4c3)cc12` [Compound 228, (1R,3S,5R)-2-(2-(3-acetyl-5-(2-(fluoromethyl)pyrazolo[1,5-a]pyrimidin-6-yl)-7-methyl-1H-indol-1-yl)acetyl)-5-methyl-N-(3-methyl-6-(trifluoromethyl)pyridin-2-yl)-2-azabicyclo[3.1.0]hexane-3-carboxamide], the IC50 (Table 2) is under 1 µM. Still for that read-out and setting: the same measure for `CC(=O)c1cn(CC(=O)N2[C@H](C(=O)Nc3cc(F)cc(Br)n3)C[C@@]3(C)C[C@@H]23)c2c(C)cc(-c3cnc(C)nc3)cc12` [Compound 192, (1R,3S,5R)-2-(2-(3-acetyl-7-methyl-5-(2-methylpyrimidin-5-yl)-1H-indol-1-yl)acetyl)-N-(6-bromo-4-fluoropyridin-2-yl)-5-methyl-2-azabicyclo[3.1.0]hexane-3-carboxamide]: under 1 µM; for `CC(=O)c1cn(CC(=O)N2[C@H](C(=O)Nc3nc(C(F)(F)F)ccc3C)C[C@@]3(C)C[C@@H]23)c2c(C)nc(-c3cnc(C)nc3)cc12` [Compound 200, (1R,3S,5R)-2-{2-[3-acetyl-7-methyl-5-(2-methylpyrimidin-5-yl)pyrrolo[2,3-c]pyridin-1-yl]acetyl}-5-methyl-N-[3-methyl-6-(trifluoromethyl)pyridin-2-yl]-2-azabicyclo[3.1.0]hexane-3-carboxamide]: under 1 µM. Still for that read-out and setting: in the case of `CC(=O)c1nn(CC(=O)N2[C@H](C(=O)Nc3cncc(Br)n3)C[C@@]3(C)C[C@@H]23)c2c(C)cc(-c3cnc(CO)nc3)cc12` [Compound 48, (1R,3S,5R)-2-(2-(3-acetyl-5-(2-(hydroxymethyl)pyrimidin-5-yl)-7-methyl-11H-indazol-1-yl)acetyl)-N-(6-bromopyrazin-2-yl)-5-methyl-2-azabicyclo[3.1.0]hexane-3-carboxamide] it was under 1 µM; in that of `CC(=O)c1nn(CC(=O)N2C[C@H]3C[C@H]3[C@H]2C(=O)Nc2nc(Br)c(F)cc2C)c2c(C)cc(-c3cnc(CO)nc3)cc12` [Compound 76, (1R,2S,5S)-3-(2-(3-acetyl-5-(2-(hydroxymethyl)pyrimidin-5-yl)-7-methyl-11H-indazol-1-yl)acetyl)-N-(6-bromo-5-fluoro-3-methylpyridin-2-yl)-3-azabicyclo[3.1.0]hexane-2-carboxamide], under 1 µM. As to `CC(=O)c1nn(CC(=O)N2[C@H](C(=O)Nc3cccc(C(F)(F)F)c3F)C[C@@]3(C)C[C@@H]23)c2ccc(-c3cnc(C)nc3)cc12` [Compound 24, (1R,3S,5R)-2-(2-(3-Acetyl-5-(2-methylpyrimidin-5-yl)-1H-indazol-1-yl)acetyl)-N-(2-fluoro-3-(trifluoromethyl)phenyl)-5-methyl-2-azabicyclo[3.1.0]hexane-3-carboxamide], the IC50 (assay of Example 3) is under 1 µM.

Take `CC(=O)c1cn(CC(=O)N2[C@H](C(=O)Nc3nc(C(F)(F)F)ccc3C)C[C@@]3(C)C[C@@H]23)c2cc(F)c(-c3cnc4cc(C)nn4c3)cc12` [Compound 230, (1R,3S,5R)-2-(2-(3-acetyl-6-fluoro-5-(2-methylpyrazolo[1,5-a]pyrimidin-6-yl)-1H-indol-1-yl)acetyl)-5-methyl-N-(3-methyl-6-(trifluoromethyl)pyridin-2-yl)-2-azabicyclo[3.1.0]hexane-3-carboxamide]: the IC50 (Table 2) was under 1 µM.

Take `CCC(Cc1ccccc1)NC(=O)[C@@H]1C[C@@]2(C)C[C@H]2N1C(=O)Cn1nc(C(C)=O)c2cc(-c3cnc(C)nc3)cc(C)c21` (stereo partly drawn) [Compound 173, (1R,3S,5R)-2-{2-[3-acetyl-7-methyl-5-(2-methylpyrimidin-5-yl)indazol-1-yl]acetyl}-5-methyl-N-(1-phenylbutan-2-yl)-2-azabicyclo[3.1.0]hexane-3-carboxamide]: the half-maximal inhibitory concentration (IC50) (Table 2) was under 1 µM. Same read-out and setting: the same measure for `CC(=O)c1nn(CC(=O)N2[C@H](C(=O)NC3CCCC4(C3)OCCO4)C[C@@]3(C)C[C@@H]23)c2c(C)cc(-c3cnc(C)nc3)cc12` (stereo partly drawn) [Compound 137, (1R,3S,5R)-2-{2-[3-acetyl-7-methyl-5-(2-methylpyrimidin-5-yl)indazol-1-yl]acetyl}-N-{1,4-dioxaspiro[4.5]decan-7-yl}-5-methyl-2-azabicyclo[3.1.0]hexane-3-carboxamide]: under 1 µM; for `CC(=O)c1nn(CC(=O)N2[C@H](C(=O)Nc3nc(Br)ccc3C)C[C@@]3(C)C[C@@H]23)c2c(C)cc(-c3cnc(F)nc3)cc12` [Compound 59, (1R,3S,5R)-2-(2-(3-acetyl-5-(2-fluoropyrimidin-5-yl)-7-methyl-1H-indazol-1-yl)acetyl)-N-(6-bromo-3-methylpyridin-2-yl)-5-methyl-2-azabicyclo[3.1.0]hexane-3-carboxamide]: under 1 µM; for `CC(=O)c1nn(CC(=O)N2[C@H](C(=O)N[C@@H]3CCCCC3(F)F)C[C@@]3(C)C[C@@H]23)c2c(C)cc(-c3cnc(C)nc3)cc12` [Compound 148, (1R,3S,5R)-2-{2-[3-acetyl-7-methyl-5-(2-methylpyrimidin-5-yl)indazol-1-yl]acetyl}-N-[(1R)-2,2-difluorocyclohexyl]-5-methyl-2-azabicyclo[3.1.0]hexane-3-carboxamide]: under 1 µM. Still for that read-out and setting: the same measure for `CC(=O)c1nn(CC(=O)N2[C@H](C(=O)NC(C)Cc3ccoc3)C[C@@]3(C)C[C@@H]23)c2c(C)cc(-c3cnc(C)nc3)cc12` (stereo partly drawn) [Compound 181, (1R,3S,5R)-2-{2-[3-acetyl-7-methyl-5-(2-methylpyrimidin-5-yl)indazol-1-yl]acetyl}-N-[1-(furan-3-yl)propan-2-yl]-5-methyl-2-azabicyclo[3.1.0]hexane-3-carboxamide]: under 1 µM. `CC(=O)c1nn(CC(=O)N2[C@H](C(=O)NCCc3ccccc3F)C[C@@]3(C)C[C@@H]23)c2c(C)cc(-c3cnc(C)nc3)cc12` [Compound 1, (1R,3S,5R)-2-(2-(3-Acetyl-7-methyl-5-(2-methylpyrimidin-5-yl)-1H-indazol-1-yl)acetyl)-N-(2-fluorophenethyl)-5-methyl-2-azabicyclo[3.1.0]hexane-3-carboxamide]: the IC50 (assay of Example 3) was under 1 µM.

For the compound `CC(=O)c1nn(CC(=O)N2[C@H](C(=O)Nc3nc(Br)c(F)cc3C)C[C@@]3(C)C[C@@H]23)c2c(C)cc(-c3ccc(CO)nc3)cc12` [Compound 118, (1R,3S,5R)-2-(2-(3-acetyl-5-(6-(hydroxymethyl)pyridin-3-yl)-7-methyl-1H-indazol-1-yl)acetyl)-N-(6-bromo-5-fluoro-3-methylpyridin-2-yl)-5-methyl-2-azabicyclo[3.1.0]hexane-3-carboxamide], the IC50 (Table 2) was under 1 µM.

Regarding `CC(=O)c1nn(CC(=O)N2[C@H](C(=O)Nc3cc(F)cc(Br)n3)C[C@@]3(C)C[C@@H]23)c2c(C)cc(-c3cnc(CO)nc3)cc12` [Compound 123, (1R,3S,5R)-2-(2-(3-acetyl-5-(2-(hydroxymethyl)pyrimidin-5-yl)-7-methyl-1H-indazol-1-yl)acetyl)-N-(6-bromo-4-fluoropyridin-2-yl)-5-methyl-2-azabicyclo[3.1.0]hexane-3-carboxamide], the half-maximal inhibitory concentration (IC50) (Table 2) is under 1 µM. The same measure, in the same setting: in the case of `CC(=O)c1nn(CC(=O)N2[C@H](C(=O)N[C@@H](C(C)(C)C)C(F)(F)F)C[C@@]3(C)C[C@@H]23)c2c(C)cc(-c3cnc(C)nc3)cc12` [Compound 154, (1R,3S,5R)-2-{2-[3-acetyl-7-methyl-5-(2-methylpyrimidin-5-yl)indazol-1-yl]acetyl}-5-methyl-N-[(2S)-1,1,1-trifluoro-3,3-dimethylbutan-2-yl]-2-azabicyclo[3.1.0]hexane-3-carboxamide] it was 1 to 10 µM; in that of `CC(=O)c1cn(CC(=O)N2[C@H](C(=O)Nc3nc(Br)c(F)cc3C)C[C@@]3(C)C[C@@H]23)c2c(C)cc(-c3cnc4cc(C)nn4c3)cc12` [Compound 209, (1R,3S,5R)-2-(2-(3-acetyl-7-methyl-5-(2-methylpyrazolo[1,5-a]pyrimidin-6-yl)-1H-indol-1-yl)acetyl)-N-(6-bromo-5-fluoro-3-methylpyridin-2-yl)-5-methyl-2-azabicyclo[3.1.0]hexane-3-carboxamide], under 1 µM.

A word on the IC50: it is the point on the concentration scale where inhibition reaches its midpoint.
